Experimental findings from patent publication US20250136946A1, “REAL-TIME CHEMICAL SCREENING METHOD USING LIVER ORGANOIDS FLUORESCENTLY LABELED WITH CYTOCHROME P450 1A1 ENZYME” (priority 2023, published 2025) are described below.

Each structure is given as a SMILES string. Like-named read-outs stand apart in the source and are kept apart here.

For data set [1], the system named is CYP1A1. The following applies: for mCherry fluorescence intensity at different concentrations: real-time, TCDD positive control. On the procedure: The CYP1A1 fluorescently labelled stem cell line-derived hepatic organoids were treated with the selected hazardous chemicals, tert-butylhydroquinone (tBHQ), 1,2-naphtoquinone (1,2-NQ), and 1,4-naphtoquinone (1,4-NQ) to observe the changes in mCherry fluorescence intensity in real-time.

In data set [2] the test system is CYP1A1. Description: CYP1A1 mRNA expression level in CYP1A1-mCherry hPSC-derived hepatic organoids. It counts as cell-based, human.
Where [3] appears, read: hepatic organoids, real-time fluorescence, 24 hours of treatment.

On to `Cc1ccc2cc3c(ccc4ccccc43)c3c2c1CC3` [3-MC, 3-methylcholanthrene], for which, in the data set with CYP1A1 [1] (setting [3]), the “mCherry fluorescence intensity in hepatic organoids” value was “increase”.

`O=C1C=Cc2ccccc2C1=O` [1,2-NQ, 1,2-Naphtoquinone]: the “mCherry fluorescence intensity at different concentrations” value in the data set on CYP1A1 [1] (hepatic organoids) is reported as “increased in a concentration-dependent manner”.

As for `CC(=O)[C@]1(O)Cc2c(O)c3c(c(O)c2[C@@H](O[C@H]2C[C@H](N)[C@H](O)[C@H](C)O2)C1)C(=O)c1ccccc1C3=O` [idarubicin], the “mCherry fluorescence intensity in hepatic organoids” value in the data set on CYP1A1 [1] is given as “increase”.

For `COc1cccc2c1C(=O)c1c(O)c3c(c(O)c1C2=O)C[C@@](O)(C(C)=O)C[C@@H]3O[C@H]1C[C@H](N)[C@H](O)[C@H](C)O1` [daunorubicin], the “mCherry fluorescence intensity in hepatic organoids” value in the data set on CYP1A1 [1] was “increase”.

Turning to `COc1cccc2c1C(=O)c1c(O)c3c(c(O)c1C2=O)C[C@@](O)(C(=O)CO)C[C@@H]3O[C@H]1C[C@H](N)[C@H](O)[C@H](C)O1` [DOX, doxorubicin], in the data set on CYP1A1 [1], the “mCherry fluorescence intensity in hepatic organoids” value is listed as “increase”.

`CC(C)(C)c1cc(O)ccc1O` [tBHQ, tert-Butylhydroquinone]: the “mCherry fluorescence intensity at different concentrations” value with CYP1A1 [1] (hepatic organoids) is given as “increased in a concentration-dependent manner”.

Regarding `Cc1ccccc1N=Nc1ccc(NC(=O)c2ccnn2C)c(C)c1` [CH223191], the “mCherry fluorescence intensity, treated together with AHR agonists” value in the data set on CYP1A1 [1] (hepatic organoids, treated together with TCDD and BaP) is on record as “decreased”. In addition, the “mCherry fluorescence intensity, treated together with three hazardous chemicals” value with CYP1A1 [1] (hepatic organoids, treated together with tBHQ, 1,2-NQ, 1,4-NQ) is recorded as “decreased”. In addition, the “CYP1A1 gene expression level, treated together with AHR agonists” value in the data set with CYP1A1 [2] (treated together with TCDD and BaP) is reported as “decreased”. Also, in the data set with CYP1A1 [2] (treated together with tBHQ, 1,2-NQ, 1,4-NQ), the “CYP1A1 mRNA expression level, treated together with three hazardous chemicals” value is given as “decrease”.

In the case of `O=Cc1c2c(cc3c1=Nc1ccccc1-3)=Nc1ccccc1-2` [FICZ, 6-formylindolo [3,2-B]carbazole], in the data set on CYP1A1 [1] (setting [3]), the “mCherry fluorescence intensity in hepatic organoids” value is “increase”.

With `Clc1cc2c(cc1Cl)Oc1cc(Cl)c(Cl)cc1O2` [TCDD, 2,3,7,8-tetrachlorodibenzo-p-dioxin], in the data set on CYP1A1 [1] (hepatic organoids, 3-hour intervals up to 72 hours after treatment), the “mCherry fluorescence intensity, time-lapse imaging” value was “increased in a time-dependent manner”. In the data set on CYP1A1 [1] (hepatic organoids, 24 hours after treatment, imaging device), the mCherry fluorescence result is given as “increase”. For the same molecule, the “CYP1A1 mRNA expression level” value in the data set on CYP1A1 [2] (24 hours after treatment) is recorded as “increased”.

Consider `O=C1C=CC(=O)c2ccccc21` [1,4-NQ, 1,4-Naphtoquinone], for which, in the data set with CYP1A1 [1] (hepatic organoids), the “mCherry fluorescence intensity at different concentrations” value is reported as “increased in a concentration-dependent manner”.

Take `Cc1oncc1C(=O)Nc1ccc(C(F)(F)F)cc1` [leflunomide]: the “mCherry fluorescence intensity in hepatic organoids” value in the data set with CYP1A1 [1] was “increase”.
